# Data published in patent EP0021836A1, “Clavulanic acid derivatives, process for their preparation and pharmaceutical compositions containing them” (BEECHAM GROUP PLC, priority 1979, dated 1981).
# Several values for one entry are separate records, joined by “and”; a condition that tells them apart may be missing. Equal values may be shown once.
# Legend:
# [1] = system: E. coli strain E96; assay: in-vivo subcutaneous synergistic activity with amoxycillin against intraperitoneal infection in mice; conditions: Escherichia coli, sc, amoxycillin alone, read-out: CD50 (the source's name)
# [2] = system: E. coli strain E124; assay: as above; conditions: Escherichia coli, sc, amoxycillin alone, read-out: CD50 (the source's name)
# [3] = system: Staph Russell; assay: standard MIC test (synergistic and antibacterial properties); assay type: cell-based; conditions: substance alone, in µg/mL (unit assumed)
# [4] = system: E.coli JT39; assay: as above; assay type: cell-based; conditions: substance alone, unit assumed
# [5] = system: Kleb E70; assay: as above; assay type: cell-based; conditions: substance alone; Kleb E70 (printed Kleb Eto in the 1st table); unit assumed
Compound,MIC [3],MIC [4],MIC [5],ED50 [1],ED50 [2]
CC1(C)S[C@@H]2[C@H](NC(=O)[C@H](N)c3ccc(O)cc3)C(=O)N2[C@H]1C(=O)O [Amoxycillin],,,,> 1000 mg/kg,> 1000 mg/kg
O=C(O)[C@H]1/C(=C/CO)O[C@@H]2CC(=O)N21 [Clavulanic acid],16 and 31.2,16 µg/mL,,,
"CC(C)NCC=C1OC2CC(=O)N2C1C(=O)O (stereo not shown) [Example 1, 9-N-Isopropylaminodeoxyclavulanic acid]",8,31.2 µg/mL,500 µg/mL,,

# More lines, main results first:
MIC [3],MIC [4],MIC [5],Compound,ED50 [1],ED50 [2]
16,31.2 µg/mL,> 500 µg/mL,"O=C(O)C1C(=CCNC2CCCC2)OC2CC(=O)N21 (stereo not shown) [Example 2, 9-N-Cyclopentylaminodeoxyclavulanic acid]",,
8.0,62.5 µg/mL,500 µg/mL,"O=C(O)C1C(=CCNC2CCCCC2)OC2CC(=O)N21 (stereo not shown) [Example 3, 9-N-Cyclohexylaminodeoxyclavulanic acid]",,
